The target in this experiment is p38 map kinase (Homo sapiens, UniProt Q16539). As to the kind of experiment: P38 map kinase assay (SPA). Particulars: SPA [33-P] assay, biotinylated myelin basic protein substrate 2.5 μM, 10 μM ATP, 90 min 30° C. It is filed as biochemical. From the text: The assay makes use of the serine/threonine protein kinase SPA [33-P]+assay kit from Amersham Pharmacia Biotech. The assay is a homogeneous technique using SPA technology for the quantification of serine threonine kinase activity.
Chain of p38 map kinase (Q16539 whole entry): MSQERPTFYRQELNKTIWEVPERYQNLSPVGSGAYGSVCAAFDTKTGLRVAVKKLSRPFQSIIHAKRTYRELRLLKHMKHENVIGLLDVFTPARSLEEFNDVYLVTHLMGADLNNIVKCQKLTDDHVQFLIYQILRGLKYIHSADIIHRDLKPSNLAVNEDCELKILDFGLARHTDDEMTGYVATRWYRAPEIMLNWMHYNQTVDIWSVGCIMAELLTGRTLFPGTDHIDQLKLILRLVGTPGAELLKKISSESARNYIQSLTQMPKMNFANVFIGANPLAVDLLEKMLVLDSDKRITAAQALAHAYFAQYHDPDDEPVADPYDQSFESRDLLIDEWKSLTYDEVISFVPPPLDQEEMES
It is based on the p38 map kinase catalysed transfer of the γ-phosphate group of the [γ-^33P] ATP to the substrate, biotinylated myelin basic protein (MBP). The resulting [^33P]-labelled biotinylated product is trapped on a PVT SPA bead containing scintillant which has been surface coated with streptavidin.
The beads are allowed to settle to eliminate high background, and therefore only ^33P labelled product attached to the SPA bead is detected.
The assay is carried out in the presence and absence of test compounds to determine their effect on p38 map kinase activity.
A Test Protocol is as Follows:
• 1. SPA assay kit (Amersham). Components: • Assay buffer (store frozen) • Stop solution (store frozen) • Streptavidin coated SPA beads—reconstitute with 5 mls of PBS. (50 mg/ml). (Store in fridge) • 2. p38 map kinase enzyme SCRD (500 μg/ml)−aliquoted in 1.5 mls. • dilute 1:10 to 50 μg/ml • 1 plate: −110 μl (stock 500 μg/ml)+[…] PBS. • 3. Assay reagent: • for 1 plate: −504 μl Assay buffer (500 Mm MOPS pH7.2, 10 μM ATP, • 50 mM MgCl2, 25 μM biotinylated myelin basic protein (MBP)). • 2513.4 μl Water • 1.1 μl 33-p-ATP ([…]) (on activity date/adjust for activity date) • 4.534 μl×10^-2M ATP in water • 4. Stop solution: • for 1 plate: −265.92 μl streptavidin coated beads (50 mg/ml) • 1651.68 μl stop buffer (500 μM ATP, 50 mM EDTA 1% Triton X-100) • 7084.32 μl PBS. • 1. Add 10 μcompound Dilutions (5× final conc) Test wells. • 2. Add 10 μl 12.5% DMSO to control/blank wells. • 3. Add 10 μl enzyme (50 μg/ml)−final conc 500 ng/well • 4. Add 10 μPBS to blank wells. • 5. Add 30 μL of assay reagent to each well. (final conc 10 μM ATP, 2.5 μM substrate) • 6. Mix well on plate shaker • 7. Incubate 90 min (30° C.) • 8. Add 75 μl of stop solution to each well (final conc 55 μM ATP) • 9. Spin plate: −3 min/1600 rpm/20° C. (alternatively leave to settle overnight) • 10. Read in Microbeta, Protocol SPA paralux 3.
One may read the IC50 as the concentration that inhibits the measured activity by half. Read a low IC50 as greater potency in that assay. The compound `O=C(c1ccccc1)c1ccc(=O)n2c1[nH]c1ccccc12` [Example 1, 4-Benzoylpyrido[1,2-a]benzimidazol-1(5H)-one] registered an IC50 of 518 nM.
In turn, `O=C(c1ccccc1)c1ccc(=O)n2c3c([nH]c12)CCCC3` [Example 5, 4-Benzoyl-6,7,8,9-tetrahydropyrido[1,2-a]benzimidazol-1(5H)-one] showed an IC50 of 111 nM.
For the compound `Cc1[nH]c2c(C(=O)c3ccc(F)cc3)ccc(=O)n2c1C` [Example 2, 8-(4-Fluorobenzoyl)-2,3-dimethylimidazo[1,2-a]pyridin-5(1H)-one], the IC50 amounted to 329 nM.
Regarding `Cc1[nH]c2c(C(=O)c3ccccc3F)ccc(=O)n2c1C` [Example 3, 8-(2-Fluorbenzoyl)-2,3-dimethylimidazo[1,2-a]pyridin-5(1H)-one], it took 235 nM to reach half-maximal inhibition (IC50).
To `O=C(c1ccc(F)cc1F)c1ccc(=O)n2c3c([nH]c12)CCCC3` [Example 38, 4-(2,4-Difluorobenzoyl)-6,7,8,9-tetrahydropyrido[1,2-a]benzimidazol-1(51)-one] belongs 96 nM.

The values above are taken from patent publication US6984646B2, “Imidazopyridinones as p38 map kinase inhibitors” (Bayer Healhcare AG, priority 2001, dated 2006).
